{"source": "patent US9345734B2", "about": "“Achillea fragrantissima extract, method for preparing Achillea fragrantissima extract and method for treating chronic myeloid leukemia” (King Saud University, priority 2013, dated 2016)", "tested_on": "K562 human leukemia cells", "test": "Leukemia K562 cell model in rats, survival after onset of circulating blast cells", "assay_type": "in vivo", "conditions": "oral 30 mg/kg, treated for 7 to 14 days", "description": "Male Waster rats (220-230 g) were used. Rats were maintained in cages with raised floors of wide wire mesh to prevent coprophagy. All animals were kept under uniform and controlled conditions of temperature and light/dark (12/12 h) cycles. The animals were fed with standard pelleted diet and water ad libitum and were left one week for acclimatization to animal room condition.\nA known weight of total methanol extract and each of the isolated compounds (P1-P5) and the reference drug (TKIs) was dissolved in 3% v/v Tween 80 to produce solutions of 10% concentration.\nIn absence of LD50 values for the total methanol extract and each of the isolated compounds, an experimental dose of 100/mg kg was selected in this investigation to be given orally to rats. The reference drug, TKIs, were given orally at a certain dose (30 mg/kg). This dose was calculated by converting the therapeutic dose that used in human to rat's dose according to the table of Paget & Barnes (1964). […]\nRats were divided into 8 equal groups. […] After transplantation of the K562 cells, animals were monitored for the presence of circulating blast cells by blood sampling from the retro-orbital plexus according to Ratajczak et al. (1992) method.\nAfter 5 weeks, leukemic cell transplantation in animals was monitored for the development of overt leukemia by retro-orbital plexus bleeding thrice weekly. […]"}
{"smiles": "Cc1ccc(NC(=O)c2ccc(CN3CCN(C)CC3)cc2)cc1Nc1nccc(-c2cccnc2)n1", "note": "[TKIs, 4-[(4-methyl-1-piperazinyl)methyl]-N-[4-methyl-3-[[4-(3-pyridinyl)-2-pyrimidinyl]aminophenyl]benzamide methanesulfonate]", "values": [{"measurement": "survival compared with control animals", "value": "not statistically different from the control animals"}]}
